From publication PMC9697131, “Agomelatine, Ketamine and Vortioxetine Attenuate Energy Cell Metabolism—In Vitro Study” (International Journal of Molecular Sciences, 2022)
Values joined by “and” are separate entries in the source; they are usually repeats but may differ in a detail not shown here. Identical values can stand only once. Like-named read-outs stand apart in the source and are kept apart here.

Experiments:
[1] = tested on: complex I (NADH dehydrogenase); assay: Complex I (NADH dehydrogenase) activity, spectrophotometric; assay type: biochemical; conditions: 100 μM drug, pig brain mitochondria, mean ± SD
Description: (§1) Pig brains were obtained from a slaughterhouse. Mitochondrial fraction isolation and purification from brain cortex were performed as previously described. Briefly, grey matter from pig brains was homogenized and crude mitochondrial fraction was isolated and then centrifuged on the sucrose gradient to obtain purified mitochondrial fraction. The freshly purified mitochondria were kept on ice until the assays were performed and were used for measurements of the mitochondrial oxygen consumption rate, measurements of ATP and ROS formation. Frozen mitochondria (stored at −70 °C) were used for the following enzyme activity measurements: ETC complexes, citrate synthase (CS) and malate dehydrogenase (MDH) activity.
(§2) Ultrasonication and incubation of mitochondria with the tested drugs for 30 min at 30 °C was performed before measurement with a corresponding drug-free control (DMSO) for every measurement. Mitochondrial enzymes activities were determined spectrophotometrically as absorbance using a GENESYS 180 UV-Vis Spectrophotometer (Thermo Fisher Scientific, Waltham, MA, USA).
The reaction mixture consisted of KH2PO4, MgCl2 and KCN and the reaction was started by adding decylubiquinone and NADH. The rotenone-sensitive NADH oxidation reaction was measured at 340 nm for 5 min. The final protein concentration was 150 µg/mL and final drugs concentrations 2.5, 5, 10, 50 and 100 µM. Drug-free control (DMSO) was used as a control for each measurement.

[2] = tested on: complex IV (cytochrome c oxidase); assay: Complex IV (cytochrome c oxidase) activity, spectrophotometric; assay type: biochemical; conditions: pig brain mitochondria, mean ± SD
Description: as §1, §2
The medium consisted of KH2PO4, and the reaction was initiated by reduced cyt c. The decrease in absorbance was measured at 550 nm for 3 min. The final protein concentration was 10 µg/mL and final drugs concentrations 10, 50 and 100 µM. Drug-free control (DMSO) was used as a control for each measurement.

[3] = biological target: T1, citrate synthase (CS) (Sus scrofa, UniProt P00889); assay: Citrate synthase activity; assay type: biochemical, pig; conditions: mean, N=3
T1 construct: Frozen mitochondria (stored at −70 °C) were used for the following enzyme activity measurements: ETC complexes, citrate synthase (CS) and malate dehydrogenase (MDH) activity; from tissue; host or cells: pig brain cortex, purified mitochondrial fraction (frozen, sonicated)
T1 sequence (P00889 28-464): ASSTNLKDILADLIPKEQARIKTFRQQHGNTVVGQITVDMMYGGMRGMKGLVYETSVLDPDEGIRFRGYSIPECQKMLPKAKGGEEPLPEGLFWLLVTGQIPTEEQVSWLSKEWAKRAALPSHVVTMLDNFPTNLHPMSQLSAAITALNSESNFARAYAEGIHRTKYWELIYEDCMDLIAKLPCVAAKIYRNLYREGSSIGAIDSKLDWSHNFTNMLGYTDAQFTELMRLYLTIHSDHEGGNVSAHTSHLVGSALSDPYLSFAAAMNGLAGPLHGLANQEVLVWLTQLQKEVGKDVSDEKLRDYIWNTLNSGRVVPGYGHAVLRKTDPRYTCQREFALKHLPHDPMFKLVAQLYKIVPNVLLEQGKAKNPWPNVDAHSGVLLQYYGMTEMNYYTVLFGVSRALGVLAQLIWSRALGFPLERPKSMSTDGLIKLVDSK
Description: as §1, §2
The reaction mixture consisted of Triton, Tris, 5,5′-dithiobis-(2-nitrobenzoic) acid and acetyl coenzyme A. The reaction was started by adding oxaloacetate and the CS activity was measured by detecting the color change of 5,5′-dithiobis-(2-nitrobenzoic) acid at 412 nm with a duration of 3 min. […]

[4] = tested on: complex I-linked respiration, pig brain mitochondria; assay: Complex I-linked mitochondrial respiration, high-resolution respirometry; assay type: biochemical; conditions: for effect on complex I-linked respiration (in words): titration 0.125–100 µM
Description: as §1
The mitochondrial oxygen consumption rate was measured by high-resolution respirometry using Oxygraph-2k (Oroboros Instruments Corp, Innsbruck, Austria). The final protein concentration was 0.05–0.14 mg/mL and the reaction mixture consisted of 2 mM malate, 5 mM pyruvate, 1.25 mM ADP and […] for complex I-linked respiration; 1.25 mM ADP, 0.75 mM MgCl2, 1 µM rotenone and 10 mM succinate for complex II-linked respiration. The following […] simultaneous measurements were assessed: a titration with the drug to the final drug concentrations of 0.125–100 µM in one chamber and a titration with a drug-free control (DMSO) in the second oxygraph chamber.
The respiration rate was expressed as pmol O2 consumed/second/mg of a protein.
(§3) The inhibition of respiration rate and MAO activity were analyzed by A four-parameter logistic regression with Prism software (GraphPad Software, San Diego, CA, USA) was used to analyze the respiratory rate inhibition and activity of MAO. […] The IC50 represents the drug concentration required to inhibit the difference between the baseline and the residual value of the mitochondrial oxygen flux or MAO activity by 50%.

[5] = biological target: T2, MAO-B (Sus scrofa, UniProt Q6PLK3); assay: MAO-B activity, radiolabeled [14C]PEA substrate; assay type: biochemical, pig; conditions: for MAO-B Inhibition (type): 0.1–300 µM; for MAO-B Hillslope / MAO-B Residual Activity: mean
T2 construct: from tissue; host or cells: pig brain mitochondria
T2 sequence (Q6PLK3 1-520): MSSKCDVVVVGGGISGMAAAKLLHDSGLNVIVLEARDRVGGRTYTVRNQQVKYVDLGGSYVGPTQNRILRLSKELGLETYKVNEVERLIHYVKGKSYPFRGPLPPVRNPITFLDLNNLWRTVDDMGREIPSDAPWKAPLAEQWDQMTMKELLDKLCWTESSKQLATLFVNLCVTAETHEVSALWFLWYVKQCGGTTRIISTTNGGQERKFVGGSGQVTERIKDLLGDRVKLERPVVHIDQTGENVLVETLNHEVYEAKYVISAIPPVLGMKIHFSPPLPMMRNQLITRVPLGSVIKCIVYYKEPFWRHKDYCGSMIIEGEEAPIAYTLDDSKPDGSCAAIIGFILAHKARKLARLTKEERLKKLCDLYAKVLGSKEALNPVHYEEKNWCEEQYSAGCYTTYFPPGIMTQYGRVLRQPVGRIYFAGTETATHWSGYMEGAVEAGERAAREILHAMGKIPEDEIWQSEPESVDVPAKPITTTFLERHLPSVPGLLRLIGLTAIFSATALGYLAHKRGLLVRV
Description: as §1
Mitochondria in KH buffer at final concentration of 800 µg/mL were preincubated with the tested drugs in a final concentration range of 0.1–300 µM for 60 min at 37 °C. For each measurement, there was a corresponding drug-free control (DMSO). Radiolabeled substrates ([^3H]serotonin for MAO-A and [^14C]PEA for MAO-B) were added to initiate the reaction. The reaction was carried out at 37 °C for 20 min for MAO-A and for 1 min for MAO-B, and the reaction was stopped by hydrochloric acid. The radioactivity of the organic phases of the extracts were measured by liquid scintillation counting (LS 6000IC, Beckman Instruments, Inc., Fullerton, CA, USA).
as §3

Row | SMILES | complex I activity (relative to control = 100%) ([1]; listed as VOR) | complex IV activity (relative to control = 100%) ([2]; 100 μM drug) | CS (% of Control) ([3]; 10 μM drug) | CS (% of Control) ([3]; 100 μM drug) | complex I-linked respiration rate (relative to control = 100%) ([4]; 50 μM drug, mean ± SD) | residual activity of complex I-linked respiration ([4]; four-parameter logistic fit, mean ± SEM) | IC50 ([4]; four-parameter logistic fit, mean ± SEM, listed as VOR) | effect on complex I-linked respiration (in words) [4] | MAO-B Inhibition (type) [5] | IC50 ([5]; mean ± SEM, 4 measurements, read-out: MAO-B IC50) | MAO-B Hillslope ([5]; 4 measurements) | MAO-B Residual Activity ([5]; 4 measurements) | complex I activity (relative to control = 100%) [1] | IC50 [5] | complex IV activity (relative to control = 100%) ([2]; 10 μM drug) | complex IV activity (relative to control = 100%) ([2]; 50 μM drug) | MAO-B Inhibition (type) ([5]; listed as AGO)
1 | Cc1ccc(Sc2ccccc2N2CCNCC2)c(C)c1 [vortioxetine] | 5.5 ± 1.8% and 5.5% | 9.3 ± 3.8% | 109.3 % of Control | * 96.9 % of Control | 22.5 ± 7.1% | 4.7% | 10.5 µM | full inhibitor of complex I-linked respiration | partial | 18.2 µM | 2.58 | 0.229 rel.u. |  |  |  |  | 
2 | CNC1(c2ccccc2Cl)CCCCC1=O (stereo not drawn) [ketamine] |  | 3.9 ± 3.0% | 107.3 % of Control | 97.4 % of Control |  |  |  | inhibited complex I-linked respiration very weakly | weak |  | 2.12 | 0.707 rel.u. | 91.2 ± 6.6% | 51.2 µM |  |  | 
3 | COc1ccc2cccc(CCNC(C)=O)c2c1 [agomelatine] |  | 12.8 ± 4.1% | 108.8 % of Control | 95.7 % of Control |  |  |  | did not affect complex I-linked respiration at all | none |  |  |  | 73.7 ± 5.1% |  | 45.0 ± 3.6% | 17.9 ± 3.4% | did not affect its activity at all
